What was measured:
[1] = test system: malondialdehyde (MDA) formation; experiment: Inhibition of lipid peroxidation: MDA formation in tissues of LPS-induced mice; format: in vivo, mouse; settings: LPS 250 μg/kg i.p. 3 days, mean ± SD; for MDA formation in pancreas, preventative treatment: compound 25 μmol/kg i.p. for 3 days and 120 min before sacrifice; for MDA formation in pancreas, curative treatment: compound 25 μmol/kg i.p. only for the last 2 days
Protocol: (§1) According to the results from previous in vitro([18]) efficacy and safety studies and in vivo pharmacokinetics, the efficacy of the FA and the more LAT1-specific derivative, D1 against oxidative stress and lipid peroxidation was evaluated by determining malondialdehyde (MDA) formation in mouse tissues. To induce oxidative stress, mice were administered 250 μg/kg of lipopolysaccharide (LPS) i.p. once per day for 3 consecutive days. On the 4th day, mice were anesthetized using a mixture of ketamine (140 mg/kg) and xylazine (8 mg/kg) and sacrificed by decapitation. Animals were divided into one of four treatment groups (n = 4 per group); (1) LPS only, (2) LPS with the FA or D1 (25 μmol/kg; i.p.) for 3 days and 120 min before the sacrifice on the 4th day (preventative efficacy), (3) LPS with the FA or D1 (25 μmol/kg; i.p.) only for the last 2 days (curative efficacy), or (4) control mice treated with 0.9% NaCl solution i.p. once per day for 3 days. After decapitation, the kidney, liver, and pancreas were rapidly collected, snap-frozen on dry ice, and stored at −80 °C until analyzed.
Pieces of snap-frozen tissues were homogenized 1:10 (w/v) in 50 mM TBS (pH 7.4) containing 0.01% butylated hydroxytoluene by sonicating samples in pulses for 5 s with a SoniPrep 150 Plus disintegrator (MSE Ltd., London, UK). The homogenates were then centrifuged at 10 000 × g for 20 min at 4 °C, and the supernatants were collected for the assays.
MDA was quantified by the derivatization reaction with thiobarbituric acid (TBA) (Sigma, St. Louis, MO, USA), with a previously described protocol.[30] The analysis was carried out with an Agilent 1290 Infinity II LC System (Agilent Technologies, Santa Clara, CA, USA) combined with an Agilent 1290 Infinity II Diode Array Detector. The results were calculated as μmol of formed MDA-TBA2 per mg of tissue.

human plasma = experiment: Coagulation parameters (PT, INR, APTT, TT) in human plasma
Protocol: To assess the safety of the LAT1 derivatives in the human blood circulation system, the basic coagulation parameters, prothrombin time (PT), activated partial thromboplastin time (APTT), thrombin time (TT), and international normalized ratio (INR) were determined from human plasma in the presence of FA, D1, and D2. The parameters were studied using a coagulometer (CoagChrom-3003 Bio-Ksel, Grudziądz, Poland), with the previously described methods.[25],[31] The following reagents were used in the basic coagulation studies: Bio-Ksel System APTT reagent and calcium chloride, Bio-Ksel PT plus reagent (thromboplastin and solvent), and thrombin (3.0 UNIH/mL), (Bio-Ksel, Grudziądz, Poland). The experiments were performed using citrated human plasma. Control samples consisting of drug solvents [distilled water and methanol mixture (1:2 v/v)] were conducted. The methods were validated using normal plasma (Bio-Ksel, Grudziądz, Poland). Coefficients of variability (CV) were counted (n = 5): CV(PT) = 5.34%, CV(APTT) = 2.61%, CV(TT) = 1.82%. Following reference values for each test were applied: PT: 9.7–14.6 s; APTT: 26.7–40.0 s; and TT: 14.0–18.0 s for 3.0 UNIH/mL of thrombin.

[2] = test system: prostaglandin E2 (PGE2) production; experiment: Inhibition of prostaglandin E2 production in tissues of LPS-induced mice; format: in vivo, mouse; settings: LPS 250 μg/kg i.p., mean ± SD; for PGE2 in liver, preventative treatment / PGE2 in pancreas, preventative treatment: compound 25 μmol/kg i.p. 3 days and 120 min before sacrifice; for PGE2 in liver, curative treatment / PGE2 in pancreas, curative treatment: compound 25 μmol/kg i.p. last 2 days
Protocol: as §1
The ability of FA and D1 to inhibit prostaglandin E2 (PGE2) production in the mouse kidney, liver, and pancreas was evaluated after the exposure of mice to LPS. The tissue homogenate supernatants (n = 4), prepared as described above in MDA sample preparation (Chapter 2.7), were further diluted 1:5 with 80% MeOH (v/v) solution containing the deuterated internal standard, PGE2-d4 (Cayman Chemical Company, Ann Arbor, MI, USA). To improve the extraction of prostaglandins and precipitation of proteins, the diluted samples were incubated overnight in a freezer (−80 °C). Subsequently, samples were centrifuged at 16 000 × g for 20 min at 4 °C and the supernatants were collected for the LC–MS/MS analysis.
The LC–MS/MS analysis was carried out with a previously described method[30] using an Agilent 1290 Infinity LC System (Agilent Technologies, Waldbronn, Germany) and an Agilent 6495 triple quadrupole mass spectrometer with a heated electrospray ionization source (Agilent Technologies, Palo Alto, CA, USA). Data were collected using Agilent MassHunter Workstation software (version B.06.00) and processed with the Quantitative Analysis (B.07.00) software. The results were calculated as nmol of PGE2 per mg of tissue.

[3] = previous in vitro bioconversion studies; cited from earlier work
human erythrocytes = experiment: Erythrocyte morphology, phase-contrast microscopy; format: cell-based; settings: tested 25–100 μM
Protocol: To further evaluate the safety of derivatives in human blood, the effects of FA, D1, and D2 on hemolysis were studied using a previously described protocol.[31] Shortly, freshly collected erythrocytes were washed three times with 1 mL of 0.9% saline (Sigma-Aldrich, Germany). Subsequently, 2% RBC suspension was prepared by diluting 1 mL of erythrocytes in 50 mL of 0.9% saline. FA, D1, and D2 (1–100 μM) were incubated with the RBC suspension at 37 °C for 1 h. Additionally, negative controls containing 0.9% NaCl and positive controls with Triton X-100 (Polish Chemical Reagents, Poland) were studied. After incubation, the samples were centrifuged at 3 000 rpm for 10 min, and the absorbance values were measured from the collected supernatants at the wavelength of 550 nm. Samples with Triton X (positive control) represented 100% hemolysis. Results of the studies are presented as a percentage of released hemoglobin. The counted CV was 8.1% (n = 5). Additionally, the influence of FA and its derivatives (25–100 μM) on RBC morphology was studied using a phase contrast Opta-Tech inverted microscope. The morphology was analyzed using a dedicated OptaView 7 software (Opta-Tech, Warsaw, Poland).

SMILES	MDA formation in pancreas, preventative treatment [1] [µmol/mg]	MDA formation in pancreas, curative treatment [1] [µmol/mg]	effect on APTT (human plasma; 100 μM)	PGE2 in liver, preventative treatment [2] [nmol/mg]	PGE2 in pancreas, preventative treatment [2] [nmol/mg]	PGE2 in liver, curative treatment [2] [nmol/mg]	PGE2 in pancreas, curative treatment [2] [nmol/mg]	release of FA in the mouse liver [3]	concentration at which anisocytosis with formation of macrocytes was observed (human erythrocytes) [µM]	concentration at which few stomatocytes were detected (human erythrocytes) [µM]	effect on INR (human plasma)	prothrombin time (PT) (human plasma; 100 μM, control 13.2 ± 1.3 s) [s]	concentration at which formation of echinocytes was observed (human erythrocytes) [µM]
COc1cc(C=CC(=O)NCc2cccc(CC(N)C(=O)O)c2)ccc1O (centres unmarked) [derivative 1]	0.46 ± 0.47	0.44 ± 0.39	prolonged the APTT	15.95 ± 9.61	24.51 ± 15.99	48.55 ± 14.50	23.51 ± 8.81	neither D1 nor D2 released FA	50 to 100	100	–	–	–
COc1cc(C=CC(=O)O)ccc1O [ferulic acid, 4-hydroxy-3-methoxycinnamic acid]	0.94 ± 0.41	1.04 ± 0.29	–	25.41 ± 6.35	57.56 ± 51.63	37.07 ± 10.02	54.68 ± 22.02	–	–	–	increased INR	15.5 ± 0.4	–
COc1cc(/C=C/C(=O)Nc2cccc(C[C@H](N)C(=O)O)c2)ccc1O [derivative 2]	–	–	–	–	–	–	–	neither D1 nor D2 released FA	–	–	–	–	50 to 100

— publication PMC9644403, “L-type Amino Acid Transporter 1 Utilizing Ferulic Acid Derivatives Show Increased Drug Delivery in the Mouse Pancreas Along with Decreased Lipid Peroxidation and Prostaglandin Production” (Molecular Pharmaceutics, 2022)
